{"source": "patent US9426996B2", "about": "“Use of benzoxaboroles as volatile antimicrobial agents on meats, plants, or plant parts” (AgroFresh Inc., priority 2013, dated 2016)", "key": {"Penicillium expansum [1]": {"test_system": "Penicillium expansum", "assay": "in vitro spore germination assay, temperature regimes", "format": "cell-based", "settings": "P. expansum spores; for inhibition at 0.035 µg/mL: 0.035 mg/L; for inhibition at 0.07 µg/mL: 0.07 mg/L; for inhibition at 0.14 µg/mL: 0.14 mg/L", "procedure": "In order to assess the activity of Compound A as a volatile fungicide, an in vitro assay is developed to evaluate spore germination. Two mL of water agar is poured in 3.5 cm Petri plates. […] Plates are then incubated for either one day at 0° C., five day at 0° C., or five day at 0° C. plus an additional one or two days at 21° C."}, "Botrytis cinerea [2]": {"test_system": "Botrytis cinerea", "assay": "in vivo volatile bioassay using inoculated white carnations", "procedure": "In order to assess the in vivo activity of volatile antimicrobial Compound A on controlling Botrytis cinerea on ornamental flowers, a volatile bioassay is developed using white carnations.\nFive carnations are placed in an 800 mL jar containing 200 mL of a common commercial flower preservative. Five jars are then placed in a 117 L Rubbermaid storage box (Cat #2244). The petals are uniformly spray-inoculated with 5 mL of 1×10^5 spores/mL of Botrytis cinerea suspension. The tub is closed tightly. For treatment application, Compound A is dissolved in an aqueous 1,2-propylene glycol solution (3:1) and 5 mL of the solution is volatilized into the container using an ES-100-H SmartFog system (Reno, Nev.) through a ½″ side port that is sealed immediately after the application. The flowers are incubated for 3 days at 21° C. After storage, the flowers are evaluated for incidence based on presence of disease on flower petals relative to untreated control flowers for up to 8 days at 21° C., with results summarized in Table 12."}, "Penicillium digitatum": {"test_system": "Penicillium digitatum", "assay": "in vivo sublimation bioassay on fruit, 10 mg/L (Example 22)", "settings": "Orange; 10 mg/L sublimed; three day treatment plus three days at 21° C.", "procedure": "(§1) To assess the in vivo activity of volatile antimicrobial Compound A (FIG. 1) in fruit, a volatile bioassay is developed using apple, pear, orange, strawberry, grape and blueberry. Two apples, 2 oranges, 2 pears, 8 strawberries, 16 grapes or 30 blueberries (per replicate, in duplicate) are placed in a clamshell with the stem end facing up for all fruits except for strawberry (stem end facing downwards). A fresh wound is inoculated with 20 μL 1×10^6 per mL Penicillium expansum spore suspension (apple and pear), 20 μL 1×10^6 per mL Penicillium digitatum spore suspension (orange), and 20 μL (strawberry and grape) or 10 μL (blueberry) of 1×10^6 per mL Botrytis cinerea spore suspension. The clamshells are placed inside a 117 L Rubbermaid storage box (Cat #2244) with lids closed. Compound A, dissolved in acetone, is pipetted onto a cotton strip, where the acetone is allowed to evaporate for five minutes, and then introduced into the container by a sublimation device (copper tube heated to 200° C. with fan flow at 0.5 L/min) to achieve a final headspace concentration of 10 mg/L. The containers are then held for three days at 21° C. After treatment, fruits are held for an additional three days at 21° C., then evaluated for disease incidence (mm diameter of browning or water-soaked lesions) and pathogen sporulation (mm diameter) for apple, pear and orange, as well as Botrytis cinerea disease incidence (%) and severity (0 to 4) for strawberry, grape and blueberry, with results summarized in Table 21."}, "Penicillium expansum [3]": {"test_system": "Penicillium expansum", "assay": "in vivo sublimation bioassay on fruit, 10 mg/L (Example 22)", "settings": "10 mg/L sublimed, three day treatment plus three days at 21° C.", "procedure": "as §1"}, "Botrytis cinerea [4]": {"test_system": "Botrytis cinerea", "assay": "white carnations with natural inoculum, fog or passive volatile treatment", "format": "in vivo", "settings": "8 days of shelf-life", "procedure": "A similar test like the one described above is also performed on white carnations (treated with or without the commercial anti-ethylene compound silver thiosulfate; STS) with natural inoculum. Compound A is either dissolved in an aqueous 1,2-propylene glycol solution (3:1) and 5 mL of the solution volatilized using an ES-100-H SmartFog system (Reno, Nev.) through a ½″ side port that is sealed immediately after the application, or dissolved in acetone and applied to a 42.5 millimeter (mm) Whatman #1 filter disk (Cat. No. 1001-042), and placed on a watch glass after allowing the acetone to evaporate for 5 minutes. The flowers are incubated for 3 days at 21° C. After storage, the flowers are evaluated for an additional 8 days for disease severity based on the number of lesions present on flower petals and sepals."}, "[5]": {"test_system": "Pectobacterium carotovorum", "assay": "in vivo volatile assay on potato, onion and carrot cubes", "settings": "50 mg/L; for Log CFU/mL: 10 C for four days", "procedure": "To test the effect of Compound A at controlling bacterial pathogens of vegetables, potato, onion and carrot are chopped into small cubes and surface sterilized with 0.825% NaOCl and allowed to dry. Four small cubes (approximately […]) of each vegetable are placed in a sterile Petri plate. Each cube is inoculated with 25 μL of Pectobacterium carotovorum (bacterial concentration of OD 1.0, 600 nm). […] No. 1001-042) attached to the inner side of the lid. The acetone is permitted to evaporate for five minutes before closing the plate and sealing it with parafilm. The vegetables are incubated at 10 C for four days."}}}
{"smiles": "OB1OCc2cc(F)ccc21", "note": "[Compound A]", "values": [{"measurement": "inhibition at 0.035 µg/mL", "setting": "Penicillium expansum [1]; 24 h, 1 day, 0° C.", "result": 0, "unit": "%"}, {"measurement": "inhibition at 0.07 µg/mL", "setting": "Penicillium expansum [1]; 24 h, 1 day, 0° C.", "result": 0, "unit": "%"}, {"measurement": "inhibition at 0.14 µg/mL", "setting": "Penicillium expansum [1]; 24 h, 1 day, 0° C.", "result": 0, "unit": "%"}, {"measurement": "inhibition at 0.035 µg/mL", "setting": "Penicillium expansum [1]; 120 h, 5 day, 0° C.", "result": 0, "unit": "%"}, {"measurement": "inhibition at 0.07 µg/mL", "setting": "Penicillium expansum [1]; 120 h, 5 day, 0° C.", "result": 0, "unit": "%"}, {"measurement": "inhibition at 0.14 µg/mL", "setting": "Penicillium expansum [1]; 120 h, 5 day, 0° C.", "result": 0, "unit": "%"}, {"measurement": "inhibition at 0.035 µg/mL", "setting": "Penicillium expansum [1]; 5 day, 0° C. 1 day, 21° C.", "result": 0, "unit": "%"}, {"measurement": "inhibition at 0.07 µg/mL", "setting": "Penicillium expansum [1]; 5 day, 0° C. 1 day, 21° C.", "result": 0, "unit": "%"}, {"measurement": "inhibition at 0.14 µg/mL", "setting": "Penicillium expansum [1]; 5 day, 0° C. 1 day, 21° C.", "result": 0, "unit": "%"}, {"measurement": "Disease incidence (%) on Petals", "setting": "Botrytis cinerea [2]; 0.04 mg/L, Day 0", "result": 0, "unit": "%"}, {"measurement": "Disease incidence (%) on Petals", "setting": "Botrytis cinerea [2]; 0.04 mg/L, Day 1", "result": 0, "unit": "%"}, {"measurement": "Disease incidence (%) on Petals", "setting": "Botrytis cinerea [2]; 0.04 mg/L, Day 2", "result": 16, "unit": "%"}, {"measurement": "Disease incidence (%) on Petals", "setting": "Botrytis cinerea [2]; 0.04 mg/L, Day 3", "result": 40, "unit": "%"}, {"measurement": "Disease incidence (%) on Petals", "setting": "Botrytis cinerea [2]; 0.04 mg/L, Day 8", "result": 92, "unit": "%"}, {"measurement": "Disease incidence (%) on Petals", "setting": "Botrytis cinerea [2]; 0.2 mg/L, Day 0", "result": 0, "unit": "%"}, {"measurement": "Disease incidence (%) on Petals", "setting": "Botrytis cinerea [2]; 0.2 mg/L, Day 1", "result": 8, "unit": "%"}, {"measurement": "Disease incidence (%) on Petals", "setting": "Botrytis cinerea [2]; 0.2 mg/L, Day 2", "result": 20, "unit": "%"}, {"measurement": "Disease incidence (%) on Petals", "setting": "Botrytis cinerea [2]; 0.2 mg/L, Day 3", "result": 16, "unit": "%"}, {"measurement": "Disease incidence (%) on Petals", "setting": "Botrytis cinerea [2]; 0.2 mg/L, Day 8", "result": 36, "unit": "%"}, {"measurement": "Disease incidence (%) on Petals", "setting": "Botrytis cinerea [2]; 1 mg/L, Day 0", "result": 0, "unit": "%"}, {"measurement": "Disease incidence (%) on Petals", "setting": "Botrytis cinerea [2]; 1 mg/L, Day 1", "result": 0, "unit": "%"}, {"measurement": "Disease incidence (%) on Petals", "setting": "Botrytis cinerea [2]; 1 mg/L, Day 2", "result": 0, "unit": "%"}, {"measurement": "Disease incidence (%) on Petals", "setting": "Botrytis cinerea [2]; 1 mg/L, Day 3", "result": 4, "unit": "%"}, {"measurement": "Disease incidence (%) on Petals", "setting": "Botrytis cinerea [2]; 1 mg/L, Day 8", "result": 16, "unit": "%"}, {"measurement": "Sporulation (mm)", "setting": "Penicillium digitatum", "result": 8.55, "unit": "mm"}, {"measurement": "Water soaked lesion", "setting": "Penicillium digitatum", "result": 3.04, "unit": "mm"}, {"measurement": "Browning (mm)", "setting": "Penicillium expansum [3]; Apple", "result": 5.4, "unit": "mm"}, {"measurement": "Sporulation (mm)", "setting": "Penicillium expansum [3]; Apple", "result": 0, "unit": "mm"}, {"measurement": "Browning (mm)", "setting": "Penicillium expansum [3]; Pear", "result": 2.7, "unit": "mm"}, {"measurement": "Sporulation (mm)", "setting": "Penicillium expansum [3]; Pear", "result": 0, "unit": "mm"}, {"measurement": "Severity (Average Number of Lesions)", "setting": "Botrytis cinerea [4]; Petals, 0.04 mg/L, Non-STS, Fog", "result": 0.4}, {"measurement": "Severity (Average Number of Lesions)", "setting": "Botrytis cinerea [4]; Petals, 0.04 mg/L, Non-STS, Volatile", "result": 3.1}, {"measurement": "Severity (Average Number of Lesions)", "setting": "Botrytis cinerea [4]; Petals, 0.04 mg/L, STS, Fog", "result": 0.3}, {"measurement": "Severity (Average Number of Lesions)", "setting": "Botrytis cinerea [4]; Petals, 0.04 mg/L, STS, Volatile", "result": 0.5}, {"measurement": "Severity (Average Number of Lesions)", "setting": "Botrytis cinerea [4]; Petals, 0.2 mg/L, Non-STS, Fog", "result": 0}, {"measurement": "Severity (Average Number of Lesions)", "setting": "Botrytis cinerea [4]; Petals, 0.2 mg/L, Non-STS, Volatile", "result": 1.8}, {"measurement": "Severity (Average Number of Lesions)", "setting": "Botrytis cinerea [4]; Petals, 0.2 mg/L, STS, Fog", "result": 0}, {"measurement": "Severity (Average Number of Lesions)", "setting": "Botrytis cinerea [4]; Petals, 0.2 mg/L, STS, Volatile", "result": 0.1}, {"measurement": "Severity (Average Number of Lesions)", "setting": "Botrytis cinerea [4]; Petals, 1 mg/L, Non-STS, Fog", "result": 0}, {"measurement": "Severity (Average Number of Lesions)", "setting": "Botrytis cinerea [4]; Petals, 1 mg/L, Non-STS, Volatile", "result": 1.5}, {"measurement": "Severity (Average Number of Lesions)", "setting": "Botrytis cinerea [4]; Petals, 1 mg/L, STS, Fog", "result": 0}, {"measurement": "Severity (Average Number of Lesions)", "setting": "Botrytis cinerea [4]; Petals, 1 mg/L, STS, Volatile", "result": 0.1}, {"measurement": "Severity (Average Number of Lesions)", "setting": "Botrytis cinerea [4]; Sepals, 0.04 mg/L, Non-STS, Fog", "result": 0.3}, {"measurement": "Severity (Average Number of Lesions)", "setting": "Botrytis cinerea [4]; Sepals, 0.04 mg/L, Non-STS, Volatile", "result": 2.1}, {"measurement": "Severity (Average Number of Lesions)", "setting": "Botrytis cinerea [4]; Sepals, 0.04 mg/L, STS, Fog", "result": 0.6}, {"measurement": "Severity (Average Number of Lesions)", "setting": "Botrytis cinerea [4]; Sepals, 0.04 mg/L, STS, Volatile", "result": 1.1}, {"measurement": "Severity (Average Number of Lesions)", "setting": "Botrytis cinerea [4]; Sepals, 0.2 mg/L, Non-STS, Fog", "result": 0.04}, {"measurement": "Severity (Average Number of Lesions)", "setting": "Botrytis cinerea [4]; Sepals, 0.2 mg/L, Non-STS, Volatile", "result": 1.6}, {"measurement": "Severity (Average Number of Lesions)", "setting": "Botrytis cinerea [4]; Sepals, 0.2 mg/L, STS, Fog", "result": 0.1}, {"measurement": "Severity (Average Number of Lesions)", "setting": "Botrytis cinerea [4]; Sepals, 0.2 mg/L, STS, Volatile", "result": 0.3}, {"measurement": "Severity (Average Number of Lesions)", "setting": "Botrytis cinerea [4]; Sepals, 1 mg/L, Non-STS, Fog", "result": 0.04}, {"measurement": "Severity (Average Number of Lesions)", "setting": "Botrytis cinerea [4]; Sepals, 1 mg/L, Non-STS, Volatile", "result": 1}, {"measurement": "Severity (Average Number of Lesions)", "setting": "Botrytis cinerea [4]; Sepals, 1 mg/L, STS, Fog", "result": 0.04}, {"measurement": "Severity (Average Number of Lesions)", "setting": "Botrytis cinerea [4]; Sepals, 1 mg/L, STS, Volatile", "result": 0.2}, {"measurement": "Log reduction", "setting": "[5]; Carrot", "result": 0.29, "unit": "log"}, {"measurement": "Log CFU/mL", "setting": "[5]; Carrot", "result": 6.06, "unit": "Log CFU/mL"}, {"measurement": "Log reduction", "setting": "[5]; Onion", "result": 2.14, "unit": "log"}, {"measurement": "Log CFU/mL", "setting": "[5]; Onion", "result": 5.99, "unit": "Log CFU/mL"}, {"measurement": "Log reduction", "setting": "[5]; Potato", "result": 0.84, "unit": "log"}, {"measurement": "Log CFU/mL", "setting": "[5]; Potato", "result": 6.63, "unit": "Log CFU/mL"}]}
